Measurements: ChEMBL document CHEMBL1148279, “Effects of bisphosphonates on the growth of Entamoeba histolytica and Plasmodium species in vitro and in vivo” (J Med Chem, 2004)
Blank lines part the entries; values can stand above or below the compound they belong to.

Assays:
in vitro = conditions: human, KB cells (nasopharyngeal carcinoma)
Description: Toxicity evaluated against human nasopharyngeal carcinoma KB cell line

[1] = Therapeutic index was expressed as ratio of LD50 for KB cell line to IC50 against Entamoeba histolytica; format: cell-based; conditions: human, KB cells; read-out: TI
[2] = Therapeutic index was expressed as ratio of LD50 for KB cell line to IC50 against Plasmodium falciparum; format: cell-based; conditions: human, KB cells; read-out: TI
Entamoeba histolytica = experiment: In vitro growth inhibition against Entamoeba histolytica; format: functional, organism-based
Plasmodium falciparum [3] = experiment: microbe, parasite or virus in culture
Description: In vitro growth inhibition against Plasmodium falciparum

Cricetinae gen. sp. [4] = experiment: Mean effect on amebic liver abscess (mg) formation in Entamoeba histolytica infected hamsters (treated at 10 mg/kg ip once a day for 5 days); format: functional, Cricetulus griseus; conditions: route intraperitoneal
Cricetinae gen. sp. [5] = experiment: Percent decrease of normal liver weight (mg) in Entamoeba histolytica infected hamsters (treated at 10 mg/kg ip once a day for 5 days); format: functional, Cricetulus griseus; conditions: route intraperitoneal
[6] = Inhibitory activity against Entamoeba histolytica pyrophosphate-dependent phosphofructokinase (PFK); format: functional
Cricetinae gen. sp. [7] = experiment: Percent decrease of amebic liver abscess (mg) formation in Entamoeba histolytica infected hamsters (treated at 10 mg/kg ip once a day for 5 days); format: functional; conditions: route intraperitoneal
Cricetinae gen. sp. [8] = experiment: Mean effect on normal liver weight (mg) in Entamoeba histolytica infected hamsters (treated at 10 mg/kg ip once a day for 5 days); format: functional, Cricetulus griseus; conditions: route intraperitoneal
Mus musculus [9] = experiment: Mean reduction in parasitaemia of Plasmodium berghei ANKA suppressive test in mice (Mus musculus) (in vivo) at 25 mg/kg scheduled for 4 days; format: functional
[10] = Inhibitory activity against Entamoeba histolytica pyrophosphate-dependent phosphofructokinase (PFK) (Range is 600-1200); format: functional
Plasmodium falciparum [11] = experiment: Inhibitory activity against Plasmodium falciparum 3D7
Mus musculus [12] = experiment: Mean reduction in parasitaemia of Plasmodium berghei ANKA suppressive test in mice (Mus musculus) (in vivo) at 10 mg/kg scheduled for 2 days; format: functional
Plasmodium falciparum [13] = experiment: Inhibitory activity against Plasmodium falciparum Ghana
Plasmodium falciparum [14] = experiment: Inhibitory activity against Plasmodium falciparum W2
[15] = Inhibitory activity against Entamoeba histolytica pyrophosphate-dependent phosphofructokinase (PFK) (Range is 2500-3000); format: functional
Mus musculus [16] = experiment: Mean reduction in parasitaemia of Plasmodium berghei ANKA suppressive test in mice (Mus musculus) (in vivo) at 10 mg/kg scheduled for 4 days; format: functional
[17] = Inhibitory activity against Entamoeba histolytica pyrophosphate-dependent phosphofructokinase (PFK) (Range is 900-1000); format: functional

SMILES: O=P(O)(O)C(Nc1ccc(-c2ccccc2)cc1)P(=O)(O)O
CC50 (in vitro): 495 µM
selectivity ratio [1]: 56.5
selectivity ratio [2]: 6.46
IC50 (Entamoeba histolytica): 8.76 µM
IC50 (Plasmodium falciparum [3]): 76.6 µM

SMILES: CCCCCCCCCCC(O)(P(=O)(O)O)P(=O)(O)O
CC50 (in vitro): > 806 µM
Mean effect (Cricetinae gen. sp. [4]): 285 mg
IC50 (Entamoeba histolytica): 11 µM
IC50 (Plasmodium falciparum [3]): 5.23 µM
Decrease (Cricetinae gen. sp. [5]): 9%
IC50 [6]: 20 µM
Decrease (Cricetinae gen. sp. [7]): 68%
Mean effect (Cricetinae gen. sp. [8]): 2163 mg

SMILES: CCCCC(O)(P(=O)(O)O)P(=O)(O)O
CC50 (in vitro): > 1040 µM
selectivity ratio [2]: > 18.4
IC50 (Entamoeba histolytica): > 200 µM

SMILES: CCCCCC(O)(P(=O)(O)O)P(=O)(O)O
CC50 (in vitro): > 993 µM
IC50 (Entamoeba histolytica): 157 µM
IC50 (Plasmodium falciparum [3]): 5.53 µM
Reduction (Mus musculus [9]): 80%
IC50 [10]: 1200 µM

SMILES: CN(CCc1ccccc1)CCC(O)(P(=O)(O)O)P(=O)(O)O
CC50 (in vitro): > 739 µM
selectivity ratio [1]: > 5.2
selectivity ratio [2]: > 22
IC50 (Entamoeba histolytica): 143 µM
IC50 (Plasmodium falciparum [3]): 33.5 µM

SMILES: O=P(O)(O)C(Nc1ccc(O)nc1)P(=O)(O)O
CC50 (in vitro): 257 µM
selectivity ratio [1]: 2.67
selectivity ratio [2]: 1.3
IC50 (Entamoeba histolytica): 96.1 µM
IC50 (Plasmodium falciparum [3]): 197 µM

IC50 (Plasmodium falciparum [3]): 1.07 µM
IC50 [6]: 40 µM
SMILES: CCCCCCCCCCCC(O)(P(=O)(O)O)P(=O)(O)O
IC50 (Entamoeba histolytica): 63.7 µM

SMILES: CN(CCOc1ccccc1)CCC(O)(P(=O)(O)O)P(=O)(O)O
CC50 (in vitro): 312 µM
Mean effect (Cricetinae gen. sp. [4]): 1058 mg
IC50 (Entamoeba histolytica): 6.49 µM
IC50 (Plasmodium falciparum [3]): 31.4 µM
Decrease (Cricetinae gen. sp. [5]): 3%
Decrease (Cricetinae gen. sp. [7]): -19%
Mean effect (Cricetinae gen. sp. [8]): 2295 mg

SMILES: CCCCCCCCCC(O)(P(=O)(O)O)P(=O)(O)O
CC50 (in vitro): > 775 µM
IC50 (Plasmodium falciparum [11]): 0.83 µM
Reduction (Mus musculus [12]): 75%
IC50 (Entamoeba histolytica): 13.3 µM
IC50 (Plasmodium falciparum [3]): 0.83 µM
IC50 (Plasmodium falciparum [13]): 2 µM
IC50 (Plasmodium falciparum [14]): 1 µM
IC50 [6]: 70 µM

SMILES: CCCCCC(C)NC(P(=O)(O)O)P(=O)(O)O (stereo not drawn)
CC50 (in vitro): > 989 µM
selectivity ratio [1]: > 15.1
selectivity ratio [2]: > 9.64
IC50 (Entamoeba histolytica): 65.3 µM
IC50 (Plasmodium falciparum [3]): 103 µM

SMILES: CN(CCCc1ccccc1)CCC(O)(P(=O)(O)O)P(=O)(O)O
CC50 (in vitro): 379 µM
selectivity ratio [1]: 8.4
selectivity ratio [2]: 16.6
IC50 (Entamoeba histolytica): 45.1 µM
IC50 (Plasmodium falciparum [3]): 22.8 µM

SMILES: CCCCCCC(CCCC)C(O)(P(=O)(O)O)P(=O)(O)O (stereo not drawn)
CC50 (in vitro): 228 µM
selectivity ratio [1]: 19.1
IC50 (Entamoeba histolytica): 12.4 µM
IC50 (Plasmodium falciparum [3]): > 200 µM
IC50 [6]: 1000 µM

SMILES: CCCCCCc1ccc(NC(P(=O)(O)O)P(=O)(O)O)cc1
CC50 (in vitro): 373 µM
selectivity ratio [1]: 2.83
selectivity ratio [2]: 8.06
IC50 (Entamoeba histolytica): 132 µM
IC50 (Plasmodium falciparum [3]): 46.3 µM

SMILES: O=P(O)(O)C(Nc1cc(Br)cc(Br)n1)P(=O)(O)O
CC50 (in vitro): 520 µM
selectivity ratio [1]: 18.2
Mean effect (Cricetinae gen. sp. [4]): 767 mg
IC50 (Entamoeba histolytica): 28.5 µM
IC50 (Plasmodium falciparum [3]): > 200 µM
Decrease (Cricetinae gen. sp. [5]): -22%
Decrease (Cricetinae gen. sp. [7]): 14%
Mean effect (Cricetinae gen. sp. [8]): 2883 mg

SMILES: CCCCCCC(O)(P(=O)(O)O)P(=O)(O)O
IC50 [15]: 3000 µM
CC50 (in vitro): 109 µM
IC50 (Plasmodium falciparum [11]): 4.34 µM
IC50 (Entamoeba histolytica): 29.5 µM
IC50 (Plasmodium falciparum [3]): 4.34 µM
IC50 (Plasmodium falciparum [13]): 0.5 µM
IC50 (Plasmodium falciparum [14]): 0.5 µM
Reduction (Mus musculus [16]): 48%

SMILES: O=P(O)(O)C(O)(CSc1ccncc1)P(=O)(O)O
CC50 (in vitro): > 746 µM
selectivity ratio [2]: > 4.72
IC50 (Entamoeba histolytica): > 200 µM

SMILES: O=P(O)(O)C(Nc1cccc(-c2ccccc2)c1)P(=O)(O)O
CC50 (in vitro): 749 µM
Mean effect (Cricetinae gen. sp. [4]): 570 mg
IC50 (Entamoeba histolytica): 6.6 µM
IC50 (Plasmodium falciparum [3]): > 200 µM
Decrease (Cricetinae gen. sp. [5]): -4%
IC50 [6]: 90 µM
Decrease (Cricetinae gen. sp. [7]): 36%
Mean effect (Cricetinae gen. sp. [8]): 2459 mg

SMILES: CCCCCCCCCCCCCC(O)(P(=O)(O)O)P(=O)(O)O
CC50 (in vitro): 36.8 µM
selectivity ratio [1]: 0.5
selectivity ratio [2]: 17.4
IC50 (Entamoeba histolytica): 74 µM
IC50 (Plasmodium falciparum [3]): 2.12 µM

SMILES: CCCCCCCCCCCCCCCC(O)(P(=O)(O)O)P(=O)(O)O
CC50 (in vitro): > 729 µM
selectivity ratio [1]: > 16.6
selectivity ratio [2]: > 25.3
IC50 (Entamoeba histolytica): 44 µM
IC50 (Plasmodium falciparum [3]): 28.8 µM

SMILES: CCCCc1ccc(NC(P(=O)(O)O)P(=O)(O)O)cc1
CC50 (in vitro): 278 µM
selectivity ratio [1]: 1.62
selectivity ratio [2]: 8.89
IC50 (Entamoeba histolytica): 172 µM
IC50 (Plasmodium falciparum [3]): 31.3 µM

SMILES: CN(CCCCc1ccccc1)CCC(O)(P(=O)(O)O)P(=O)(O)O
CC50 (in vitro): > 690 µM
Mean effect (Cricetinae gen. sp. [4]): 94 mg
IC50 (Entamoeba histolytica): 23.4 µM
IC50 (Plasmodium falciparum [3]): 2.9 µM
Decrease (Cricetinae gen. sp. [5]): 26%
Decrease (Cricetinae gen. sp. [7]): 89%
Mean effect (Cricetinae gen. sp. [8]): 1756 mg

SMILES: O=P(O)(O)C(O)(Cc1ccccc1)P(=O)(O)O
CC50 (in vitro): > 931 µM
selectivity ratio [2]: > 121
IC50 (Entamoeba histolytica): > 200 µM
Reduction (Mus musculus [9]): 64%
IC50 [17]: 1000 µM

SMILES: CCN(CC)C(P(=O)(O)O)P(=O)(O)O [(DIETHYLAMINO)METHYLENEDIPHOSPHONIC ACID]
selectivity ratio [1]: 12.9
selectivity ratio [2]: 8.98
IC50 (Entamoeba histolytica): 62.6 µM
IC50 (Plasmodium falciparum [3]): 90.1 µM

SMILES: CCCCCCNC(P(=O)(O)O)P(=O)(O)O [(HEXYLAMINO)METHYLENEDIPHOSPHONIC ACID]
CC50 (in vitro): > 966 µM
selectivity ratio [2]: > 17.1
IC50 (Entamoeba histolytica): > 200 µM
IC50 (Plasmodium falciparum [3]): 56.5 µM

SMILES: CC(C)CCNC(P(=O)(O)O)P(=O)(O)O [(ISOPENTYLAMINO)METHYLENEDIPHOSPHONIC ACID]
CC50 (in vitro): 480 µM
selectivity ratio [1]: 13
IC50 (Entamoeba histolytica): 36.9 µM
IC50 (Plasmodium falciparum [3]): > 200 µM

SMILES: CCCCCCCCCNC(P(=O)(O)O)P(=O)(O)O [(NONYLAMINO)METHYLENEDIPHOSPHONIC ACID]
CC50 (in vitro): > 919 µM
selectivity ratio [1]: > 6.76
selectivity ratio [2]: > 8.18
IC50 (Entamoeba histolytica): 136 µM
IC50 (Plasmodium falciparum [3]): 112 µM

IC50 (Plasmodium falciparum [3]): 13.3 µM
IC50 [6]: > 3000 µM
SMILES: CCCCCCCCNC(P(=O)(O)O)P(=O)(O)O [(OCTYLAMINO)METHYLENEDIPHOSPHONIC ACID]
selectivity ratio [1]: 2.15
selectivity ratio [2]: 5.02
IC50 (Entamoeba histolytica): 31.1 µM

SMILES: CCCCCNC(P(=O)(O)O)P(=O)(O)O [(PENTYLAMINO)METHYLENEDIPHOSPHONIC ACID]
CC50 (in vitro): > 1150 µM
selectivity ratio [2]: > 240
IC50 (Entamoeba histolytica): > 200 µM
IC50 (Plasmodium falciparum [3]): 4.8 µM

SMILES: CCN(CC)CCCC(C)Nc1ccnc2cc(Cl)ccc12 (stereo not drawn) [CHLOROQUINE]
Reduction (Mus musculus [16]): 100%

SMILES: O=P(O)(O)C(N1CCOCC1)P(=O)(O)O [MORPHOLINOMETHYLENEDIPHOSPHONIC ACID]
CC50 (in vitro): 964 µM
selectivity ratio [2]: 52.4
IC50 (Entamoeba histolytica): > 200 µM
IC50 (Plasmodium falciparum [3]): 18.4 µM

SMILES: NCCC(O)(P(=O)(O)O)P(=O)(O)O [PAMIDRONIC ACID]
IC50 (Entamoeba histolytica): > 200 µM
Reduction (Mus musculus [9]): 5%

IC50 [6]: > 3000 µM
SMILES: O=P(O)(O)C(O)(Cc1cccnc1)P(=O)(O)O [RISEDRONIC ACID]
IC50 (Entamoeba histolytica): 73.5 µM
